Among the test systems are UO-31 renal; A549 NSCLC; IGROV1 ovarian; U251 CNS; OVCAR-5 ovarian; NCI-H23 lung; PC-3 prostate; LOX IMVI melanoma; MOLT-4 leukemia; HCT-15 colon.
What all share (assay): inhibition of tumour cell growth, NCI panel, 48 h

Where “and” joins values, the source holds several entries; their conditions need not be identical. Equal entries are not always repeated.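 Step 1: Grow cells in 96-well plates. Step 2: Expose to compound for 48 hours at 5 concentrations. Step 3: Interpolate endpoints linearly; if unreached, use highest concentration. The concentration for 50% growth inhibition is given as GI50. The concentration for full growth arrest is given as TGI.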 Some results are limits rather than exact numbers.

On to `Clc1nc(Cl)nc(Nc2cccc3ccccc23)n1`, for which the GI50 is 26.5 µM in the assay with UO-31 renal; more than 100 µM in the assay with A549 NSCLC; more than 100 µM in the assay on IGROV1 ovarian; more than 100 µM with U251 CNS; more than 100 µM in the assay with OVCAR-5 ovarian; more than 100 µM in the assay on NCI-H23 lung. Also, the GI50 was 84.2 µM in the assay with PC-3 prostate, 33.5 µM with LOX IMVI melanoma, 40.3 µM with MOLT-4 leukemia and 96.5 µM in the assay with HCT-15 colon. The TGI in the assay with UO-31 renal, with A549 NSCLC, in the assay with IGROV1 ovarian, with U251 CNS, in the assay with OVCAR-5 ovarian and with NCI-H23 lung was more than 100 µM each time. Besides, the TGI with PC-3 prostate, with LOX IMVI melanoma, with MOLT-4 leukemia and in the assay with HCT-15 colon was more than 100 µM each time.

Turning to `CSc1nc(NC2OC(COC(C)=O)C(OC(C)=O)C(OC(C)=O)C2OC(C)=O)c(N=CC=Nc2c(NC3OC(COC(C)=O)C(OC(C)=O)C(OC(C)=O)C3OC(C)=O)nc(SC)n(C)c2=O)c(=O)n1C` (stereo not given), the GI50 is more than 50 µM in the assay with UO-31 renal; more than 50 µM with A549 NSCLC; more than 50 µM with IGROV1 ovarian; 20.6 µM in the assay with U251 CNS; more than 50 µM with OVCAR-5 ovarian; more than 50 µM in the assay with NCI-H23 lung. Besides, the GI50 in the assay on PC-3 prostate, in the assay on LOX IMVI melanoma, in the assay with MOLT-4 leukemia and in the assay on HCT-15 colon was more than 50 µM in each case. Besides, the TGI in the assay on UO-31 renal is more than 100 µM; in the assay with A549 NSCLC it was more than 100 µM; in the assay on IGROV1 ovarian, more than 100 µM; with U251 CNS, 50 µM and > 100 µM; in the assay on OVCAR-5 ovarian it was more than 100 µM; in the assay on NCI-H23 lung it was more than 100 µM. Besides, the TGI with PC-3 prostate, in the assay on LOX IMVI melanoma, in the assay with MOLT-4 leukemia and with HCT-15 colon was more than 100 µM in each case.

These data come from PubChem BioAssay (NCI).
